Consider seven molecules from patent publication US20170049884A1, “USE OF ANTI-CCR5 ANTIBODIES IN GRAFT VERSUS HOST DISEASE” (CytoDyn Inc., priority 2014, published 2017).

For assay [1], the system named is HIV-1 Env-mediated fusion of HeLa-EnvJRFL and CEM NKR-CCR5 cells. Put plainly: HIV-1 RET cell-cell fusion assay (Part II, Example 1). Format: cell-based. The settings on record: PRO 140 in combination with the named compound; for Mean CF: 1:1 molar ratio, Combination Index at IC50 value. On the procedure: and then diluted in DMSO to 200× the final, concentration to be utilized in the antiviral assay. Serial dilutions of small molecules were conducted in DMSO. Subsequent dilutions were conducted in medium to achieve a final DMSO concentration in the assay of 0.5%. Peptides and mAbs were diluted in PBS in the absence of DMSO.
HeLa cells were engineered to express HIV-1 gp120/gp41 from the macrophage-tropic primary isolate JRFL as described (HeLa-EnvJRFL: Litwin et al., 1996). Briefly, the HIV-1LA1 Env gene was excised from the plasmid pMA243 (Dragic et al., 1992) and the HIV-1JRFL Env gene was inserted. The HIV-1.sub JRFL Env gene was amplified from the plasmid pUCFL112-1 (Koyanagi et al., 1987). The resulting plasmid, designated JR-FL-pMA243, was sequenced by standard methods and transfected into HeLa cells using lipofectin (Gibco BRL/Invitrogen, Carlsbad, Calif.). HeLa-Env.sub JRFL transfectants were selected in methotrexate (Sigma, St. Louis, Mo.) and cloned twice by limiting dilution. The transduced human T cell leukemia line CEM NKR-CCR5 cells were obtained from the NIH AIDS Research and Reference Program (Cat. No. 458).
The HIV-1 RET assay has been described in detail previously (Litwin et al., 1996). Briefly, fluorescein octadecyl ester (F18; Molecular Probes, Eugene, Oreg.; 5 mg/ml in ethanol), was diluted 1:800 in DMEM labeling medium (DMEM; Invitrogen, Carlsbad, Calif.) with 10% fetal bovine serum (FBS; HyClone, Logan, Utah) and adjusted to an A506 of 0.34.+−0.10%. Octadecyl rhodamine B chloride (R18; Molecular Probes; 10 mg/ml in ethanol) was diluted 1:2050 in labeling medium and adjusted to an A565 of 0.52.+−0.10%. Both dyes were further diluted 2-fold by addition to cells in T75-cm^2 flasks. HeLa-EnvJRFL and CEM NKR-CCR5 cells were incubated overnight in F18- and R18-containing culture medium, respectively. The following day, medium from HeLa-EnvJRFL, cells was removed and 10 ml of 0.5 mM EDTA was added and incubated at 37°C. for 5 min. […] The centrifugation/wash step was repeated twice, after which the cells were counted and concentrations adjusted to 1.5×10^6 cells/ml. […] The plates were then read on a fluorescence plate reader (Victor^2, Perkin Elmer, Boston, Mass.) using the excitation/emission filter combinations shown in Table 5.
The “% Inhibition” was calculated according to the following formula: […]
Fifty percent inhibition (IC50) values were determined by fitting the inhibition data with a non-linear, four-parameter, variable slope equation (GraphPad Prism 4.02; GraphPad Software, San Diego, Calif.). […]
Cooperative inhibition effects of drug combinations were determined by the method of Chou and Talalay (1984). […] Combination Index (CI) and Dose Reduction (DR) values were calculated according to the following formulas: […]

In assay [2] the test system is HIV-1JR-FL envelope-mediated membrane fusion. Format: cell-based. The text has this: HIV-1 envelope-mediated membrane fusion was examined using a fluorescence resonance energy transfer (RET) assay (Litwin et al. 1996) with modifications. Briefly, HeLa cells that stably express HIV-1JR-FL gp120/gp41 (Litwin et al. 1996) and CEM.NKR-CCR5 cells (NTH AIDS Research and Reference Reagent Program, (Spenlehauer et al. 2001; Trkola et al. 1999)) were labeled separately overnight with fluorescein octadecyl ester (F18; Molecular Probes, Eugene, Oreg.) and rhodamine octadecyl ester (R18; Molecular Probes), respectively. Cells were washed in phosphate-buffered saline containing 15% feral bovine serum (PBSF) and co-seeded at 15,000 cells/well into a 384-well plate. Inhibitors were added, and the plates were incubated in PBSF plus 0.5% dimethlysulfoxide (DMSO) for 4h at 37°C. prior to measurement of RET using a Victor^2 plate reader (Perkin-Elmer, Boston, Mass.) as previously described (Litwin et al. 1996). The CD4 mAb Leu3a was used as a control inhibitor, and percent inhibition was calculated as: (RET in the absence of inhibitor—RET in the presence of inhibitor)/(RET in the absence of inhibitor—RET in the presence of Leu3a)×100.
(§1) Experimental design and data analysis were based on the combination index (CI) method (Chou et al. 1991; Chou et al. 1984). Compounds were tested individually and in combination at a fixed molar ratio over a range of serial dilutions. […] The mutually exclusive CI formula was used for combinations of CCR5 inhibitors, while the mutually non-exclusive formula was utilized for combinations of inhibitors to distinct targets (Chou et al. 1991). Each test was conducted 4-12 times. Synergy, additivity and antagonism are indicated by CI<1, CI=1 and CI>1, respectively.
(§2) In the Bonferroni correction, P=.alpha,/h, where n is the number of comparisons. Twenty-two synergy comparisons (11 compounds×2 CI values) were made based on data generated in the membrane fusion assay, resulting in a corrected P value of0.0023.

Assay [3] relates to reporter viruses pseudotyped with HIV-1SF162 envelope. Format: cell-based. The conditions noted are these: HIV-1 Envelope SF162; named 1st inhibitor with 2nd inhibitor PRO 140.
Description: (§3) A self-inactivating (SIN) vector was derived from the pNL4-3ΔEnv-luciferase vector (Dragic et al. 1996) by deleting 507 basepairs in the U3 region of the 3′ long terminal repeat (LTR) so as to remove the TATA, box and transcription factor binding sites. The human cytomegalovirus promoter was inserted upstream of the luciferase (luc) gene to enable expression of luciferase following integration.
(§4) SF162 envelopes were generated by cotransfection of 293T cells with the SIN vector and the appropriate pcDNA env-expressing vector as previously described (Dragic et al, 1996). […] Cultures were incubated for 72 h at 37°C. in DMEM containing 10% fetal bovine serum, […], 0.3 mg/mL geneticin, antibiotics, and 0.5% DMSO. Luciferase activity (relative light units or RLU) was measured using BrightGlo reagent (Promega, Madison, Wis.) according to the manufacturer's instructions. Percent inhibition was calculated as: (1-RLU in the presence of inhibitor/RLU in the absence of inhibitor)×100.
as §1, §2

In assay [4] the test system is reporter viruses pseudotyped with HIV-1JR-FL envelope. Format: cell-based. The conditions noted are these: HIV-1 Envelope JRFL; named 1st inhibitor with 2nd inhibitor PRO 140.
Description: as §3, §4, §1, §2

Assay [5] addresses T1, CCR5 (Homo sapiens, UniProt P51681). Description: Competition binding: inhibition of PRO 140-PE binding to CEM.NKR-CCR5 cells. Further details: host or cells: CEM.NKR-CCR5 (transduced human T cell leukemia line). The conditions noted are these: for inhibition of PRO 140-PE binding to CEM.NKR-CCR5 cells: in words. On the procedure: Azide was added to block CCR5 internalization during the assay.

Assay [6] has as its target T1, CCR5. Put plainly: Competition binding: inhibition of 3H-UK-427,857 binding to CEM.NKR-CCR5 cells. Further details: host or cells: CEM.NKR-CCR5 (transduced human T cell leukemia line).
Description: The cells were washed in PBSA and lysed with 0.5N HCl prior to scintillation counting using a Wallac1410 instrument.
For the next assay, the system named is HIV-1. The conditions noted are these: repeated administration; cited from earlier work.
Assay [7] has as its target T1, CCR5. Description: RANTES-induced calcium mobilization in L1.2-CCR5 cells. In kind it is cell-based. The settings on record: FIG. 4. The text has this:
Similar results were obtained for MIP-1.alpha, and MIP-1β

Another assay deals with CCR5 lymphocytes. In kind it is in vivo, human. The settings on record: 2 mg/kg. How it is done:
Individuals were treated in sequential, dose-rising cohorts of 5 subjects (4 active and 1 placebo) each and evaluated for up to 120 days post-treatment. […] Safety assessments consisted of monitoring the following: vital signs (blood pressure, pulse, temperature, etc; hematology (hemoglobin, hematocrit, leukocytes, platelets, etc.); serum chemistries (AST/ALT, alkaline phosphatase, BUN, creatinine, etc.); urinalysis (pH, specific gravity, protein, glucose, leukocytes, etc.); and ECGs (12-lead).
Whole blood specimens were combined separately with the indicated phycoerythrin-labeled anti-CCR5 antibodies or with appropriate isotype-control antibodies. Erythocytes were lysed and leukocytes were stabilized using the ImmunoPrep Reagent System (Beckman Coulter), and the cells were analyzed on a TQ Prep™ flow cytometry workstation (Beckman Coulter). Data were expressed as the percent of CCR5 cells relative to all cells gated in the analysis.
For up to 60 days post-treatment, at the times indicated in FIG. 6, blood was collected and analyzed for CCR5 lymphocyte levels.

The mark [8] stands for this setting: named 1st inhibitor with 2nd inhibitor PRO 140, equimolar.
Setting [9] is: named 1st inhibitor with 2nd inhibitor UK-427,857, equimolar.

Read-outs that look alike come from different tables or passages of the source.

T1 sequence (P51681 whole entry): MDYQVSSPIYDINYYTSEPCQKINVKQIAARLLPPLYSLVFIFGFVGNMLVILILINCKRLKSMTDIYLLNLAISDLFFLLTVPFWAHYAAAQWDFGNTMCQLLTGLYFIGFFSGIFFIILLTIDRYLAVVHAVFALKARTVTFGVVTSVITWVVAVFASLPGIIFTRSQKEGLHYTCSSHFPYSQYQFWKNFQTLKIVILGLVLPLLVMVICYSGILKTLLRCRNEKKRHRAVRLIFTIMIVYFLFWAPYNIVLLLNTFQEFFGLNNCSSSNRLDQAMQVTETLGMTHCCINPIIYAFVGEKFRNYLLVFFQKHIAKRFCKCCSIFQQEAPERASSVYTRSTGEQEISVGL

Take `Cc1nnc(C(C)C)n1C1CC2CCC(C1)N2CC[C@H](NC(=O)C1CCC(F)(F)CC1)c1ccccc1` (stereo partly drawn) [UK-427,857]: the “Mean CF” value in assay [1] was found to be 0.59 ± 0.04. In [2] (setting [8]), the C190 worked out at 0.40 ± 0.06 and the CI50 worked out at 0.61 ± 0.5.

As for `Cc1cn([C@H]2C[C@H](N=[N+]=[N-])[C@@H](CO)O2)c(=O)[nH]c1=O` [zidovudine], the values for the CI190 in [3] and in assay [4] were 1.0 ± 0.38 and 0.85 ± 0.26, respectively.

On to `COc1ccnc2[nH]cc(C(=O)C(=O)N3CCN(C(=O)c4ccccc4)C[C@H]3C)c12` [BMS-378806, (R)-N-(benzoyl)-3-methyl-N′-[(4-methoxy-7-azaindol-3-yl)-oxoacetyl]-piperazine], for which the CI190 in assay [3] was 0.82 ± 0.21. Further, in assay [4], the CI190 is 0.74 ± 0.23. Moreover, in assay [2] (setting [8]), the C190 came out at 1.1 ± 0.22 and the CI50 stood at 1.3 ± 0.19.

Take `Cc1ccnc2c1NC(=O)c1cccnc1N2C1CC1` [nevirapine]: the figures for the CI190 in assay [3] and in assay [4] were 0.63 ± 0.19 and 0.73 ± 0.28, respectively.

With `COC[C@@H](c1ccc(C(F)(F)F)cc1)N1CCN(C2(C)CCN(C(=O)c3c(C)ncnc3C)CC2)C[C@@H]1C` [SCH-D], the CI190 is 0.28 ± 0.11 in [3] and 0.18 ± 0.04 in [4]. Besides, the figures for the C190 in [2] (setting [8]) and in [2] (setting [9]) were 0.36 ± 0.06 and 0.75 ± 0.02, respectively. Moreover, the “impact on percent of cells gated for positive binding of PRO 140-PE” value on CCR5 [5] is on record as “little impact”. Further, the “inhibition of PRO 140-PE binding to CEM.NKR-CCR5 cells” value at CCR5 [5] is “modest levels of inhibition”. Also, the “inhibition of 3H-UK-427,857 binding” value on CCR5 [6] is “blocked ^3H-UK-427,857 binding to background levels”.

B1: RANTES: CC-chemokine that serves as a natural ligand for CCR5; purchased from R&D Systems (protein, UniProt P13501 24-91, looked up)
C-C motif chemokine 5: SPYSSDTTPCCFAYIARPLPRAHIKEYFYTSGKCSNPAVVFVTRKNRQVCANPEKKWVREYINSLEMS
Turning to B1, the “Mean CF” value in [1] is 0.59 ± 0.08. Moreover, the “Mean Dose Reduction (Cpd in combination)” value is 1.75 ± 0.28 in [1] (molar ratio 1:5) and 5.39 ± 1.13 in assay [1] (molar ratio 5:1). In addition, the C190 in assay [2] (setting [8]) was 0.43 ± 0.05; in assay [2] (setting [9]) it was 0.18 ± 0.01.

B2: PRO 140: humanized IgG4,kappa anti-CCR5 mAb; humanized version of the murine mAb PA14 (antibody, chains of the INN, looked up, V domains shown)
VH: EVQLVESGGGLVKPGGSLRLSCAASGYTFSNYWIGWVRQAPGKGLEWIGDIYPGGNYIRNNEKFKDKTTLSADTSKNTAYLQMNSLKTEDTAVYYCGSSFGSNYVFAWFTYWGQGTLVTVSS
VL: DIVMTQSPLSLPVTPGEPASISCRSSQRLLSSYGHTYLHWYLQKPGQSPQLLIYEVSNRFSGVPDRFSGSGSGTDFTLKISRVEAEDVGVYYCSQSTHVPLTFGQGTKVEIK
B2: the values for the CI190 in assay [3] and in [4] were 0.86 ± 0.33 and 0.90 ± 0.15, respectively. Further, the “control of HIV-1 replication” value in the assay on HIV-1 was “prolonged control of HIV-1 replication without viral escape”. The “inhibition of RANTES-induced calcium mobilization vs HIV-1JR-FL replication” value with CCR5 [7] was “blocks HIV-1 but not chemokine signaling”. Besides, in the assay with CCR5 [5], the “inhibition of PRO 140-PE binding to CEM.NKR-CCR5 cells” value is on record as “Complete inhibition”. The “binding of antibody 2D7 to CCR5 lymphocytes” value in the assay with CCR5 lymphocytes was “significantly decreased”. Also, the “inhibition of 3H-UK-427,857 binding” value with CCR5 [6] (in words) was “blocked ^3H-UK-427,857 binding to background levels”.
